From EP2135611A1, “Pregn-5-en-20-yne-3,7,17-triol derivatives for use in therapy” (Hollis-Eden Pharmaceuticals Inc., priority 2001, dated 2002)

Tests used:
Distal colitis [1] = experiment: DNBS-induced distal colitis (inflammatory bowel disease model); type: in vivo, male Wistar rats; conditions: for Moderate acute inflammation, number of animals / Severe acute inflammation, number of animals: measured 7 days after DNBS challenge; for Moderate acute inflammation, number of animals / Severe acute inflammation, number of animals / Severe chronic inflammation, number of animals: groups of 10; for Severe chronic inflammation, number of animals: measured 14 days after DNBS challenge; for Adhesions between the colon and other organs / Colonic ulceration: observed at sacrifice day 7 or day 8, dosing as for each substance; for diarrhea: recorded daily, dosing as for each substance (AET: 2 mg)
[2] = tested on: delayed type hypersensitivity (DTH); experiment: Delayed type hypersensitivity to oxazolone (ear thickness); type: in vivo, female BALB/cByJ mice; conditions: for differential ear thickness: 24 hours after oxazolone challenge, vehicle alone 0.225 mm
[3] = tested on: Experimental allergic encephalomyelitis (EAE); experiment: Experimental allergic encephalomyelitis induced with PLP-139-151 peptide/CFA; type: in vivo, Female SJL mice; conditions: for onset of EAE: 3.0 mg s.c. daily for 33 days starting 7 days before peptide; for peak clinical score: reduced from 5.2 ± 0.6; for PLP-139-151 specific T cell proliferation responses: T cells from treated mice; for numbers of TNF-α producing cells in the CNS: treated mice
Method: Example 50. Treatment of neurodegenerative conditions. Experimental allergic encephalomyelitis (EAE), is demyelinating disease of the central nervous system with many pathological and clinical similarities with multiple sclerosis (MS). EAE is thus a recognized animal model for human autoimmune conditions such as MS. Formula 1 compounds 16α-fluoroandrost-5-ene-17-one, 3β,7β,17β,-trihydroxyandrost-5-ene and 16α-bromoepiandrosterone were tested for their capacity to delay the onset of EAE or to reduce its symptoms. Female SJL mice (5 animals per group) were immunized with 150 to 200 µg of PLP-139-151 peptide/CFA to induce EAE. Starting 7 days before injection of the peptide, the animals were given daily injections (s.c.) of the compounds (3.0 mg) in 0.1 mL vehicle, or vehicle alone for 33 days. The vehicle consisted of a suspension of the formula 1 compound in saline and carboxymethylcellulose. […] A lower dose (0.3 mg/mouse) or other routes (p.o.) of administration had less effect. […] These compounds limited the production of autoimmune Th-1 associated cytokines, which is consistent with restoration of a more normal Th-1/Th-2 immune balance and/or with reduction of inflammation in this model.

Distal colitis [4] = experiment: TNBS-induced distal colitis; type: in vivo, male Sprague Dawley rats; conditions: for frequency of moderate to severe lesions and their severity compared with negative control (vehicle) and reference control: based on occurrence at multiple colonic levels
Method: In another protocol formula 1 compounds were used in a similar animal model. Groups of 10 male Sprague Dawley rats (250-300 grams) were fasted for 24 hours before 2,4,6-trinitrobenzene sulfonic acid (TNBS) or saline challenge. This model presents a severe challenge to the animal's immune system. On Day 0, the rats were lightly anesthetized and a catheter inserted rectally into the colon such that the tip was 8 cm proximal to the anus. Distal colitis was induced by intra-colonic instillation of 0.5 mL of an ethanolic solution of TNBS (60 mg/mL ethanol 50% in water). The test substance, 7-oxodehydroepiandrosterone 20 mg/mL in vehicle or vehicle control was administered by subcutaneous injection (0.1 mL/injection) once a day for 6 days, the first dose being given 30 minutes after TNBS challenge. Sulfasalazine (30 mg/mL in 2% Tween 80 in distilled water) or vehicle control was administered orally (PO) once a day (10mL/kg/day) for 7 days, the first two doses beginning 24 hours and 2 hours before DNBS challenge. Signs of diarrhea were recorded daily by examining the anal area. Animals were fasted for 24 hours prior to sacrifice on day 14 and the colon was removed and weighed. After gross observations of colonic tissues, 3 samples were taken from regions approximately 1, 3, and 8 cm proximal to the anus. If gross ulcers or inflammation were present, at least one sample was taken from the affected region. Before removal of the colon, signs of adhesion between the colon and other organs were recorded. […] Body weight, colon-to-body-weight ratio, and damage scores were assessed. Visible damage was scored on a 1-5 scale as follows: 0 = No damage; 1 = Localized hyperemia but no ulcers; 2= linear ulcers with no significant inflammation; 3 = Linear ulcers with inflammation at one site; 4 = Two or more sites of ulceration and/or inflammation; 5 = Two or more major sites of ulceration and inflammation or one major site of ulceration and inflammation extending more than 1 cm along the length of the colon. […]

[5] = day 7 (acute inflammation) after DNBS challenge
[6] = day 14 after DNBS challenge (chronic inflammation)
[7] = s.c. 20 mg/mL formulation once a day, first dose 30 minutes after DNBS, relative to vehicle-treated group / controls

Structure (SMILES): C[C@]12CC[C@H]3[C@@H]([C@@H](O)C=C4C[C@@H](O)CC[C@@]43C)[C@@H]1CC[C@@H]2O [AET, 3β,7β,17β-trihydroxyandrost-5-ene]
- animals with colonic ulcerations relative to untreated animals (Distal colitis [1]; 2 mg, N=9, pooled data from two studies): 33%
- animals showing ulcers (chronic ulceration) (Distal colitis [1]; 14 days after challenge, initiation of treatment delayed until 2 days after DNBS challenge): 5 of 10
- severe ulceration (Distal colitis [1]; [5]): 2 of 10
- severe ulceration (Distal colitis [1]; [6]): 1 of 10
- net colon-to-body weight ratio, ulcers and diarrhea (Distal colitis [1]; four subsequent studies): variably reduced
- Moderate acute inflammation, number of animals (Distal colitis [1]): 6 animals
- Severe acute inflammation, number of animals (Distal colitis [1]): 4 animals
- Severe chronic inflammation, number of animals (Distal colitis [1]): 3 animals
- Adhesions between the colon and other organs (Distal colitis [1]): absent
- diarrhea (Distal colitis [1]): no diarrhea
- decrease of net colon-to-body weight ratio (Distal colitis [1]; s.c. 0.2 mg/day for 5 or 6 days, first dose 30 minutes post-DNBS, relative to controls): 15%
- decrease of net colon-to-body weight ratio (Distal colitis [1]; s.c. 2.0 mg/day for 5 or 6 days, first dose 30 minutes post-DNBS, relative to controls): 21%
- enhancement of the DTH response ([2]; s.c. 2 mg/day daily for 8 days, first dose 24 hours before sensitization, last dose 24 hours prior to challenge): 23%
- reduction in the DTH response ([2]; s.c. 2 mg/day, administered 24 hours before challenge or at challenge): 22-24%
- reduction of cumulative disease index ([3]; 3.0 mg s.c. daily for 33 days): > 60%
- relapses ([3]; 3.0 mg s.c. daily for 33 days): prevented or significantly attenuated
- onset of EAE [3]: significantly delayed
- peak clinical score ([3]; 3.0 mg s.c. daily for 33 days): 2.8 ± 1.8
- PLP-139-151 specific T cell proliferation responses [3]: significantly reduced
- numbers of TNF-α producing cells in the CNS [3]: reduced numbers

Structure (SMILES): O=P1(N(CCCl)CCCl)NCCCO1 (centres unmarked) [cyclophosphamide, reference compound]
- differential ear thickness [2]: 0.092 mm

Structure (SMILES): C[C@]12CC[C@H](O)C[C@@H]1CC[C@@H]1[C@@H]2CC[C@]2(C)C(=O)[C@H](Br)C[C@@H]12 [BrEA, 16α-bromo-3β-hydroxy-5α-androstane-17-one]
- decrease of net colon-to-body weight ratio (Distal colitis [1]; s.c. 100 mg/mL formulation, relative to controls): 21%
- frequency of moderate to severe lesions and their severity compared with negative control (vehicle) and reference control (Distal colitis [4]): appeared to be similar
- effect on EAE ([3]; 3.0 mg s.c. daily for 33 days): not significant

Structure (SMILES): C[C@]12CCCCC1=CC[C@@H]1[C@@H]2CC[C@]2(C)C(=O)[C@H](F)C[C@@H]12 [16α-fluoroandrost-5-ene-17-one]
- reduction of cumulative disease index ([3]; 3.0 mg s.c. daily for 33 days): > 60%
- relapses ([3]; 3.0 mg s.c. daily for 33 days): prevented or significantly attenuated
- onset of EAE [3]: significantly delayed
- peak clinical score ([3]; 3.0 mg s.c. daily for 33 days): 2.8 ± 1.8
- PLP-139-151 specific T cell proliferation responses [3]: significantly reduced
- numbers of TNF-α producing cells in the CNS [3]: reduced numbers

Structure (SMILES): C[C@]12CC[C@H](O)CC1=CC[C@@H]1[C@@H]2CC[C@]2(C)C(=O)CC[C@@H]12 [dehydroepiandrosterone, reference compound]
- severe ulceration (Distal colitis [1]; [5]): 10 of 10
- severe ulceration (Distal colitis [1]; [6]): 0 of 10
- Moderate acute inflammation, number of animals (Distal colitis [1]): 0 animals
- Severe acute inflammation, number of animals (Distal colitis [1]): 10 animals
- Severe chronic inflammation, number of animals (Distal colitis [1]): 3 animals
- decrease of net colon-to-body weight ratio (Distal colitis [1]; [7]): 3%
- frequency of moderate to severe lesions and their severity compared with negative control (vehicle) and reference control (Distal colitis [4]): appeared to be similar

Structure (SMILES): C[C@]12CC[C@H](O)CC1=CC(=O)[C@@H]1[C@@H]2CC[C@]2(C)C(=O)CC[C@@H]12 [7-oxodehydroepiandrosterone, 3β-hydroxyandrost-5-ene-7,17-dione]
- decrease of net colon-to-body weight ratio (Distal colitis [1]; 0.1 mL s.c. of 2 mg/mL formulation once a day for 6 days, first dose 30 minutes after DNBS, relative to vehicle-treated group): 19%
- Adhesions between the colon and other organs (Distal colitis [1]): absent in all three tested animals
- Colonic ulceration (Distal colitis [1]): 1/3
- diarrhea (Distal colitis [1]): All animals had diarrhea
- decrease of net colon-to-body weight ratio (Distal colitis [1]; [7]): 14%
- effect on inflammation (histopathological data) (Distal colitis [4]; 20 mg/mL, 0.1 mL s.c. once a day for 6 days): exacerbated the inflammation

Structure (SMILES): O=C(O)c1cc(/N=N/c2ccc(S(=O)(=O)Nc3ccccn3)cc2)ccc1O [sulfasalazine, reference compound]
- change in net colon-to-body weight (BW) ratio (Distal colitis [1]; PO 30 mg/mL, 10 mL/kg/day once a day for 7 days, relative to EE-1 treated group): -33%
- severe ulceration (Distal colitis [1]; [5]): 3 of 10
- severe ulceration (Distal colitis [1]; [6]): 4 of 10
- Moderate acute inflammation, number of animals (Distal colitis [1]): 6 animals
- Severe acute inflammation, number of animals (Distal colitis [1]): 3 animals
- Severe chronic inflammation, number of animals (Distal colitis [1]): 2 animals
- Adhesions between the colon and other organs (Distal colitis [1]): no animals
- Colonic ulceration (Distal colitis [1]): no animals
- diarrhea (Distal colitis [1]): all animals

Structure (SMILES): C[C@@H]1C[C@H]2[C@@H]3CCC4=CC(=O)C=C[C@]4(C)[C@@]3(F)[C@@H](O)C[C@]2(C)[C@@]1(O)C(=O)CO [dexamethasone, reference compound]
- differential ear thickness [2]: 0.144 mm
